Data from ChEMBL document CHEMBL4342446, “Isopimarane Diterpenoids from the Rhizomes of Kaempferia marginata and Their Potential Anti-inflammatory Activities” (J Nat Prod, 2020).

The compounds below were run on RAW264.7 (assay: Cytotoxicity against mouse RAW264.7 cells).
Assay type: cell-based

| Structure (SMILES) | Activity |
| --- | --- |
| C=C[C@]1(C)C=C2CC[C@H]3C(C)(C)[C@H](O)C[C@H](O)[C@]3(C)[C@H]2[C@H](O)C1 | Non-Toxic |

The compounds below were run on RAW264.7 (assay: Anti-inflammatory activity in mouse RAW264.7 cells assessed as inhibition of lipopolysaccharide-induced nitric oxide production).
Assay type: functional, cell-based

| IC50 [µM] | Structure (SMILES) |
| --- | --- |
| > 50 | C=C[C@]1(C)C=C2C(=O)C[C@H]3C(C)(C)CC[C@H](O)[C@]3(C)[C@H]2CC1 |
| 40.3 | C=C[C@]1(C)C=C2CC[C@H]3C(C)(C)C[C@H](O)[C@H](O)[C@]3(C)[C@H]2CC1 |
| 50 | C=C[C@]1(C)C=C2CC[C@H]3C(C)(C)CC[C@H](O)[C@]3(C)[C@H]2CC1 |
| > 50 | C=C[C@]1(C)C=C2CC[C@H]3C(C)(C)C[C@H](O)[C@H](OC(C)=O)[C@]3(C)[C@H]2CC1 |
| > 50 | C=C[C@]1(C)C=C2C[C@@H](O)[C@H]3C(C)(C)C[C@H](O)[C@H](O)[C@]3(C)[C@H]2CC1 |
| > 50 | C=C[C@]1(C)C=C2C[C@@H](OC(C)=O)[C@H]3C(C)(C)[C@@H](O)CC(=O)[C@]3(C)[C@H]2[C@@H](O)C1 |
| > 50 | C=C[C@]1(C)C=C2[C@@H](O)C[C@H]3C(C)(C)C[C@H](O)[C@H](O)[C@]3(C)[C@H]2CC1 |
| 28.1 | C=C[C@]1(C)C=C2CC[C@H]3C(C)(C)[C@H](O)C[C@H](O)[C@]3(C)[C@H]2[C@H](O)C1 |
| > 50 | C=C[C@]1(C)C=C2C(=O)C[C@H]3C(C)(C)C[C@H](O)C[C@]3(C)[C@H]2CC1 |
| > 50 | C=C[C@]1(C)C=C2CC[C@H]3C(C)(C)[C@@H](O)C[C@H](O)[C@]3(C)[C@H]2[C@H](O)C1 |
| 36.7 | C=C[C@]1(C)C=C2CC[C@H]3C(C)(C)CC[C@H](O)[C@]3(C)[C@H]2[C@H](O)C1 |
| > 50 | C=C[C@]1(C)C=C2[C@H](O)C[C@H]3C(C)(C)CC[C@H](O)[C@]3(C)[C@H]2[C@H](O)C1 |
| 5.5 | C[C@@H]1C[C@H]2[C@@H]3CCC4=CC(=O)C=C[C@]4(C)[C@@]3(F)[C@@H](O)C[C@]2(C)[C@@]1(O)C(=O)CO [DEXAMETHASONE] |
